Key:
CRBN-DDB1 = CRBN-DDB1 (Homo sapiens, UniProt Q96SW2); assay: Compound binding to CRBN by HTRF assay; settings: CRBN-DDB1 2.5 nM, Cy5-Thalidomide 100 nM, 30 min at ambient temperature; read-out: HTRF Class (Cereblon binding, HTRF IC50)
Method: Example 146: Compound Binding to CRBN by HTRF Assay
Compound activity was monitored in a Homogenous Time-Resolved Fluorescence (HTRF) assay using 1-[5-({2-[2-(2-{[2-(2,6-dioxopiperidin-3-yl)-1,3-dioxo-2,3-dihydro-1H-isoindol-4-yl]oxy}acetamido)ethoxy]ethyl}carbamoyl)pentyl]-3,3-dimethyl-2-[(1E,3E)-5-[(2E)-1,3,3-trimethyl-5-sulfo-2,3-dihydro-1H-indol-2-ylidene]penta-1,3-dien-1-yl]-3H-indol-1-ium-5-sulfonate as a fluorescent probe. Biochemical assays were conducted in Greiner white 384 well HiBase plates (Cat. No 784075-25) in 10 μL total volume. A one pot detection solution of CRBN-DDB1 (2.5 nM), Anti-His Terbium Cryptate Gold (1X, PerkinElmer Cat. #: 61HI2TLB), and Cy5-Thalidomide (100 nM, Tenova Cat.: T52461) was prepared in 20 mM HEPES, 20 mM NaCl, 0.2 mM TCEP, 0.2 mM EDTA, and 0.005% Tween20 was dispensed to each assay plate. Compounds were stored in dry, ambient temperatures at 10 mM. A 10-point, 1:3 dilution series was prepared from 10 mM stock concentrations in Echo-compatible LDV plates. 10 nL of each compound dilution series was dispensed into assays wells using an Echo 650 (Labcyte inc. USA). 10 nL of 10 mM Lenalidomide was transferred into the active-control wells for the assay and 10 nL of DMSO was transferred into the neutral-control wells. The assay was then allowed to incubate for 30 min at ambient temperature after transferring compound. Plate measurements were taken on a Pherastar FSX (BMG Labtech, Germany) using the HTRF Red filter (Ex. 337 nm, em1: 620 nm, em2: 665 nm) (Flashes: 50, Integration time: 60-400 us, Z-height: 10 mm, Ratio-multiplier: 10,000). The HTRF signal was then subsequently normalized to the neutral and active controls. Analysis and IC50 values were derived using KNIME analytics (KNIME Zurich) transformation and fitting within Collaborative Drug Discovery (Collaborative Drug Discovery USA). Ki was derived from the geometric mean of the IC50 values using the Cheng-Prustoff transformation.
(§1) In Table 2, each compound is assigned a class (HTRF class) indicating the ability for Cereblon binding by means of their HTRF IC50 values according to […]: A, B, C or D. According to the code, A represents an IC50 value of ≤100 nM, B represents an IC50 value>100 nM and ≤1000 nM, C represents an IC50 value>1000 nM. IF Class assigns each compound a code indicating the ability for GSPT1 degradation: A, B or C. According to the code, A represents a DC50 value of ≤30 nM, B represents a DC50 value>30 nM and ≤300 nM and C represents a DC50 value of >300 nM.

GSPT1 = biological target: T1, GSPT1 (Homo sapiens, UniProt P15170+Q96SW2); assay: Immunofluorescence assay for activity to degrade GSPT1 in CAL-51 cells; format: cell-based; settings: 6 h treatment, read-out: IF Class (GSPT1 degradation, DC50)
T1 construct: CAL-51 cells were purchased from DSMZ (cat. Number ACC302); host or cells: CAL-51
T1 sequence (P15170 whole entry): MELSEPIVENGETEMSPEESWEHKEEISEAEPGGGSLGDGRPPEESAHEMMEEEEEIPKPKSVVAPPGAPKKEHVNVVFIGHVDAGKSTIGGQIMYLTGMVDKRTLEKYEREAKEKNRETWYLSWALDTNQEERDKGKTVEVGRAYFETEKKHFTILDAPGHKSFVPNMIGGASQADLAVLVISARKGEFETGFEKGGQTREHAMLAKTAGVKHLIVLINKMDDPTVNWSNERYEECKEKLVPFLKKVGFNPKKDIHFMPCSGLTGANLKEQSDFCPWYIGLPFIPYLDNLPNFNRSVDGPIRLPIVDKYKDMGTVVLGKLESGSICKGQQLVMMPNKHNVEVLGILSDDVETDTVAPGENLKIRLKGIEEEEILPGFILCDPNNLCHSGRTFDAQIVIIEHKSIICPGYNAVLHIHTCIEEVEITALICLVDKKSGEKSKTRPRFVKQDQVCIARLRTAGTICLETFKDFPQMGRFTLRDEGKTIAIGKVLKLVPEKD
T1 sequence (Q96SW2 whole entry): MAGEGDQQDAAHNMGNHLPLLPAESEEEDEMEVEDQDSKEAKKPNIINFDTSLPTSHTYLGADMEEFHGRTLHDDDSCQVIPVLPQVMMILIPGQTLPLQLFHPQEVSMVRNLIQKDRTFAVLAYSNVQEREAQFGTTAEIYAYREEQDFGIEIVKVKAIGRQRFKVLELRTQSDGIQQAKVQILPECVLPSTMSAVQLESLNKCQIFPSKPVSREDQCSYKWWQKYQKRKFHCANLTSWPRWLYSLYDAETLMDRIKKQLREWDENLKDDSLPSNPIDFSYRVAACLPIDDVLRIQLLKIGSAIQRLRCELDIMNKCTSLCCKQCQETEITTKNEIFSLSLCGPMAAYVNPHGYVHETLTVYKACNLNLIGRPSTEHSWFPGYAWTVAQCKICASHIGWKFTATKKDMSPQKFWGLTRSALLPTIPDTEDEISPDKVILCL
T1 sequence (Q16531 2-1140 partner limits assumed): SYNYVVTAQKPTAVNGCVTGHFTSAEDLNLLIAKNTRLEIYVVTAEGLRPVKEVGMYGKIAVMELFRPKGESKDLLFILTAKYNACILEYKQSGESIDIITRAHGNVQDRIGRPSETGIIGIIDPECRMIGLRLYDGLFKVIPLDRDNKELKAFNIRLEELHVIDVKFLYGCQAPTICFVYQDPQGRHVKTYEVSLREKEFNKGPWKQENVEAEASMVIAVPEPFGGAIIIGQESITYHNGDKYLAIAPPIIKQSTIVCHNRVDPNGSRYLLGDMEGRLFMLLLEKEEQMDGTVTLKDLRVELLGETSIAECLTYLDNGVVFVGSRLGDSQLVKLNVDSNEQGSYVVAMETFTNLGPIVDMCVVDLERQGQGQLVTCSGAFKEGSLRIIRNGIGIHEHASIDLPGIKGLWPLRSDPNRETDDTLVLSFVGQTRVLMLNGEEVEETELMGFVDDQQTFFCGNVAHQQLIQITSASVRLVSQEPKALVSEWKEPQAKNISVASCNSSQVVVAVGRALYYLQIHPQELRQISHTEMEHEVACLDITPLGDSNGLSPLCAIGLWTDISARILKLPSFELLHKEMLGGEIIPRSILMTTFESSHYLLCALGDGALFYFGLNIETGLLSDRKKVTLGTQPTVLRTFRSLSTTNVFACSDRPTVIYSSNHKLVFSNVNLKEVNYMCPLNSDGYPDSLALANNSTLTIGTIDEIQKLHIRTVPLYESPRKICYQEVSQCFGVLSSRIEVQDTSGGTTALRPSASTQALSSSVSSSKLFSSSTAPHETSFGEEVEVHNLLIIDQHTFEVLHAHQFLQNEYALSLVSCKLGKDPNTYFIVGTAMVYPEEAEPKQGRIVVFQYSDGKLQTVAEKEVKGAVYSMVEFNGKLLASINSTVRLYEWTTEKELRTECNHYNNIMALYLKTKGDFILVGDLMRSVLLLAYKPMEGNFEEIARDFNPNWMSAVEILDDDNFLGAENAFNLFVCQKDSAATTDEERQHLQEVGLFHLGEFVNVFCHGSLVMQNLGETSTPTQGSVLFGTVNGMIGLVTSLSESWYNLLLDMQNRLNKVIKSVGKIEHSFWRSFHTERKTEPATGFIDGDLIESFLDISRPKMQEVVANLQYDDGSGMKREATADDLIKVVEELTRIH
Method: Example 147: Compound Activity by Immunofluorescence Assay
The representative compounds were tested in an immunofluorescence assay for their activity to degrade GSPT1. CAL-51 cells were purchased from DSMZ (cat. Number ACC302), sub-cultured in 90% Dulbecco's MEM (4.5 g/L glucose, Gibco 11965)+10% heat inactivated FBS (BioConcept, 2-01F136I) and incubated at 37° C., 5% CO2. For the assay imaging microtiter plate Cell Carrier 96 Ultra (Perkin Elmer 6055302) were pre-coated with Fibronectin (Sigma F085, 30 μL at 0.2 μg/mL) in PBS (100 μL, Gibco 14190) for 45 min at room temperature, rinsed with PBS and CAL-51 cells (30K cells/well) were plated and let to adhere overnight. Cells were treated with compounds typically using a serial dilution ranging from 30 μM to 0.1 nM for 6 h. Compounds were stored at 10 mM DMSO stocks. Vehicle (DMSO), positive (CC-885, 10 μM) and rescue controls (positive control plus 0.2 μM bortezomib) were also included at this stage. Cells were subsequently rinsed with PBS and fixed in 10% Formalin solution (50 μL, Sigma HT5011)) for 20 mins at room temperature. Following three consecutive PBS washes (100 μL), cells were permeabilized in 0.1% Triton X-100 in PBS (Sigma 93443, 50 μL) for 15 min. at room temperature. Following three further PBS washes, 50 μL blocking buffer (1% BSA, Sigma A4503, in PBS) was added for 45 min for signal-to noise reduction. Primary antibody (human GSPT1, Sigma HPA052488) was diluted in blocking buffer (dil.1/300, 35 μL/well) and incubated with the cells overnight at 4° C. After three PBS washes, Alexa-fluor 488 coupled secondary antibodies (Invitrogen, A32731, dil. 1/1000), Alexa-fluor 647-Phalloidin (Invitrogen, A22287, dil. 1/200) and DAPI (Thermo, #62248, dil. 1/1000) were diluted in blocking buffer and incubated with the samples for 2 h at room temperature. After three final PBS washes, samples were conserved in 100 μL PBS in the dark, until measurement. Image acquisition was performed on the Operetta High-Content Imager (Perkin-Elmer). Fluorescence intensity of […] (GSPT1), Alexa-Fluor 647 (Actin) and DAPI (Nucleus) were measured. For the determination of GSPT1 DC50 values, a custom algorithm implemented in the PerkinElmer image analysis software Harmony-Acapella® was developed. After user-defined setting of adjustment parameters, the analysis was run identically without human intervention for all image fields. DAPI staining of the nuclei was used to determine the location of cells using standard nuclei detection modules. Segmentation artifacts were removed by threshold-based filters for area, roundness and intensity. The outline of the cells was determined analogously from the sum of the normalized, smoothed DAPI and Actin channel, starting from each nucleus. The Alexa-Fluor 488 (GSPT1) signal intensity in each cell was finally measured, in order to obtain a Mean intensity per cell. GSPT1 degradation (DC50) was calculated after normalization to controls and data import in CDD vault Database, using non-linear regression.
as §1

CRBN-DDB1, sequence (Q96SW2 whole entry): as the sequence (Q96SW2 whole entry) above
CRBN-DDB1, sequence (Q16531 whole entry partner): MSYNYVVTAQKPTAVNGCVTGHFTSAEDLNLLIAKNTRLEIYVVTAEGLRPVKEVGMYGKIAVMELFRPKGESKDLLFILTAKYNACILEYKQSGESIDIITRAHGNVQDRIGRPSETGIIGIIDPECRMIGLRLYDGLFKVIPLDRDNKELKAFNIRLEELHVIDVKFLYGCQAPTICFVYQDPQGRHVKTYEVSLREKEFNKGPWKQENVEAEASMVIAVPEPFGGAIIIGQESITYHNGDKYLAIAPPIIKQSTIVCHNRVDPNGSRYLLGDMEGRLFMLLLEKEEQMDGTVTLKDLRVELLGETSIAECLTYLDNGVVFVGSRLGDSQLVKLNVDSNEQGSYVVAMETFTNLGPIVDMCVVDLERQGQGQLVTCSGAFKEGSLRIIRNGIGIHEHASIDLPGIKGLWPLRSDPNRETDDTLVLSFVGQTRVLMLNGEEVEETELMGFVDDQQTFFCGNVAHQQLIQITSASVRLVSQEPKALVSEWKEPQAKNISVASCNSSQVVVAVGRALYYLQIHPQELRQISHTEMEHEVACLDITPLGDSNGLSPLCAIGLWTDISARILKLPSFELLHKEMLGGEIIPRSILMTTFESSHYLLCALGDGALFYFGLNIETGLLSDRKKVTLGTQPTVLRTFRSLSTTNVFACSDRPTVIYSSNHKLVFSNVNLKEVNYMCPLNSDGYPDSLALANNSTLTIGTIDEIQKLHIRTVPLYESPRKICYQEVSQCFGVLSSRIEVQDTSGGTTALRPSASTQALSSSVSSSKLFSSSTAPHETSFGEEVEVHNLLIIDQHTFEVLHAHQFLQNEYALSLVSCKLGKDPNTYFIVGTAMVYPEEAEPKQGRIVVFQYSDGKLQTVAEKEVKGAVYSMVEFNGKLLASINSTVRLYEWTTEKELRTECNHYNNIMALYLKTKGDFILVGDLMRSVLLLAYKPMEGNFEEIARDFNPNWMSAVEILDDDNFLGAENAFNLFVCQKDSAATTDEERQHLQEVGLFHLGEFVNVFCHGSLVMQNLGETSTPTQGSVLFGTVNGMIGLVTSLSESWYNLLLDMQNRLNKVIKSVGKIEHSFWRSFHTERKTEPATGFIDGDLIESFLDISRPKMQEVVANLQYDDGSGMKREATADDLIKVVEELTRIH

IC50 (CRBN-DDB1) | DC50 (GSPT1) | SMILES
≤ 100 nM | ≤ 30 nM | Cc1ccccc1-c1ccc(NC(=O)NC2CN(c3cc(F)c(C4CCC(=O)NC4=O)c(F)c3)C2)cn1 (stereo not drawn) [Compound 23, 1-(1-(4-(2,6-dioxopiperidin-3-yl)-3,5-difluorophenyl)azetidin-3-yl)-3-(6-(o-tolyl)pyridin-3-yl)urea]
≤ 100 nM | ≤ 30 nM | Cc1c(Cl)cc(NC(=O)NC2CN(c3cc(F)c(C4CCC(=O)NC4=O)c(F)c3)C2)cc1CN1CCOCC1 (stereo not drawn) [Compound 24, 1-(3-chloro-4-methyl-5-(morpholinomethyl)phenyl)-3-(1-(4-(2,6-dioxopiperidin-3-yl)-3,5-difluorophenyl)azetidin-3-yl) urea]
≤ 100 nM | > 300 nM | O=C1CCC(c2c(F)cc(N3CC(NC(=O)Nc4cc(-c5ccccc5)ccn4)C3)cc2F)C(=O)N1 (stereo not drawn) [Compound 25, 1-(1-(4-(2,6-dioxopiperidin-3-yl)-3,5-difluorophenyl)azetidin-3-yl)-3-(4-phenylpyridin-2-yl) urea]
≤ 100 nM | ≤ 30 nM | O=C1CCC(c2c(F)cc(N3CC(NC(=O)Nc4ccc(-c5ccccn5)cc4)C3)cc2F)C(=O)N1 (stereo not drawn) [Compound 26, 1-(1-(4-(2,6-dioxopiperidin-3-yl)-3,5-difluorophenyl)azetidin-3-yl)-3-(4-(pyridin-2-yl)phenyl)urea]
≤ 100 nM | 30 to 300 nM | O=C1CCC(c2c(F)cc(N3CC(NC(=O)Nc4cc(OC(F)(F)F)ccn4)C3)cc2F)C(=O)N1 (stereo not drawn) [Compound 27, 1-(1-(4-(2,6-dioxopiperidin-3-yl)-3,5-difluorophenyl)azetidin-3-yl)-3-(4-(trifluoromethoxy)pyridin-2-yl)urea]
100 to 1000 nM | 30 to 300 nM | O=C1CCC(c2c(F)cc(N3CC(NC(=O)Nc4cc(Cl)cc(OC(F)F)c4)C3)cc2F)C(=O)N1 (stereo not drawn) [Compound 28, 1-(3-chloro-5-(difluoromethoxy)phenyl)-3-(1-(4-(2,6-dioxopiperidin-3-yl)-3,5-difluorophenyl)azetidin-3-yl)urea]
> 1000 nM | 30 to 300 nM | Cc1ccc(NC(=O)OC2CN(c3cc(Cl)c(C4CCC(=O)NC4=O)cc3F)C2)cc1Cl (stereo not drawn) [Compound 29]
≤ 100 nM | ≤ 30 nM | C[C@@H]1CCCN1c1ccc(NC(=O)NC2CN(c3cc(F)c(C4CCC(=O)NC4=O)c(F)c3)C2)cn1 (stereo partly drawn) [Compound 30, 1-(1-(4-(2,6-dioxopiperidin-3-yl)-3,5-difluorophenyl)azetidin-3-yl)-3-(6-((R)-2-methylpyrrolidin-1-yl)pyridin-3-yl)urea]
100 to 1000 nM | > 300 nM | Cc1cc(C)cc(NC(=O)OC2CN(c3ccc(C4CCC(=O)NC4=O)c(Cl)c3)C2)c1 (stereo not drawn) [Compound 31, 1-(3-chloro-4-(2,6-dioxopiperidin-3-yl)phenyl)azetidin-3-yl (3,5-dimethylphenyl)carbamate]
100 to 1000 nM | ≤ 30 nM | O=C1CCC(c2c(F)cc(N3CC(OC(=O)Nc4ccc(F)c(OC(F)F)c4)C3)cc2F)C(=O)N1 (stereo not drawn) [Compound 32, 1-(4-(2,6-dioxopiperidin-3-yl)-3,5-difluorophenyl)azetidin-3-yl (3-(difluoromethoxy)-4-fluorophenyl)carbamate]
100 to 1000 nM | ≤ 30 nM | O=C1CCC(c2c(F)cc(N3CC(OC(=O)Nc4cc(OC(F)(F)F)ccc4F)C3)cc2F)C(=O)N1 (stereo not drawn) [Compound 33, 1-(4-(2,6-dioxopiperidin-3-yl)-3,5-difluorophenyl)azetidin-3-yl (2-fluoro-5-(trifluoromethoxy)phenyl)carbamate]
100 to 1000 nM | 30 to 300 nM | O=C1CCC(c2c(F)cc(N3CC(OC(=O)Nc4cc(F)cc(Cl)c4)C3)cc2F)C(=O)N1 (stereo not drawn) [Compound 34, 1-(4-(2,6-dioxopiperidin-3-yl)-3,5-difluorophenyl)azetidin-3-yl(3-chloro-5-fluorophenyl)carbamate]
100 to 1000 nM | > 300 nM | Cc1cc(C)cc(NC(=O)NC2CN(c3ccc(C4CCC(=O)NC4=O)c(Cl)c3)C2)c1 (stereo not drawn) [Compound 35, 1-(1-(3-chloro-4-(2,6-dioxopiperidin-3-yl)phenyl)azetidin-3-yl)-3-(3,5-dimethylphenyl)urea]
> 1000 nM | 30 to 300 nM | O=C1CCC(c2ccc(N3CC(OC(=O)Nc4cccc(OC(F)(F)F)c4)C3)cc2Cl)C(=O)N1 (stereo not drawn) [Compound 36, 1-(3-chloro-4-(2,6-dioxopiperidin-3-yl)phenyl)azetidin-3-yl (3-(trifluoromethoxy)phenyl)carbamate]
100 to 1000 nM | ≤ 30 nM | O=C1CCC(c2c(F)cc(N3CC(OC(=O)Nc4cccc(OC5CC5)c4)C3)cc2F)C(=O)N1 (stereo not drawn) [Compound 37, 1-(4-(2,6-dioxopiperidin-3-yl)-3,5-difluorophenyl)azetidin-3-yl (3-cyclopropoxyphenyl)carbamate]
100 to 1000 nM | 30 to 300 nM | O=C1CCC(c2c(F)cc(N3CC(OC(=O)Nc4cc(Cl)cc(OC(F)F)c4)C3)cc2F)C(=O)N1 (stereo not drawn) [Compound 38, 1-(4-(2,6-dioxopiperidin-3-yl)-3,5-difluorophenyl)azetidin-3-yl(3-chloro-5-(difluoromethoxy)phenyl) carbamate]
100 to 1000 nM | ≤ 30 nM | Cc1cc(NC(=O)OC2CN(c3cc(F)c(C4CCC(=O)NC4=O)c(F)c3)C2)c(F)cc1Cl (stereo not drawn) [Compound 39, 1-(4-(2,6-dioxopiperidin-3-yl)-3,5-difluorophenyl)azetidin-3-yl(4-chloro-2-fluoro-5-methylphenyl)carbamate]
100 to 1000 nM | ≤ 30 nM | CC1(c2ccc(NC(=O)NC3CN(c4cc(F)c(C5CCC(=O)NC5=O)c(F)c4)C3)cn2)CC1 (stereo not drawn) [Compound 40, 1-(1-(4-(2,6-dioxopiperidin-3-yl)-3,5-difluorophenyl)azetidin-3-yl)-3-(6-(1-methylcyclopropyl)pyridin-3-yl)urea]
